This assay has as its target T1, human GPR84 receptor (Homo sapiens, UniProt Q9NQS5).
T1 construct: host or cells: HEK293, transient transfection
Briefly: Gαi biosensor BRET assay in HEK293 cells (antagonism of ZQ-16). It counts as cell-based. To be noted: for inhibition at 10 µM: HEK293, single concentration 10 μM (designated F); for IC50: HEK293 cells, antagonism of 200 nmol/L ZQ-16; for inhibition at 2 µM: HEK293, single concentration 2 μM (designated A); for inhibition at 25 µM: HEK293, single concentration 25 μM (designated I). The method in brief:
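HEK293 cells transiently expressing human GPR84, Gαi2-Rluc8, GFP10-Gγ2 and Gβ1, in Tyrode's buffer pH 7.5. Compounds preincubated 5 min at 37° C, then 200 nmol/L ZQ-16 for 5 min at room temperature; coelenterazine 400A 5 μmol/L. BRET2 acceptor/donor ratio, background- and vehicle-corrected net BRET.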

As a reminder, the inhibition is the relative decrease from the control value, in per cent. Higher therefore signals strong suppression. As a reminder, the IC50 is the concentration needed to halve the response being measured. A lower IC50 goes with higher potency.

T1 sequence (Q9NQS5 whole entry): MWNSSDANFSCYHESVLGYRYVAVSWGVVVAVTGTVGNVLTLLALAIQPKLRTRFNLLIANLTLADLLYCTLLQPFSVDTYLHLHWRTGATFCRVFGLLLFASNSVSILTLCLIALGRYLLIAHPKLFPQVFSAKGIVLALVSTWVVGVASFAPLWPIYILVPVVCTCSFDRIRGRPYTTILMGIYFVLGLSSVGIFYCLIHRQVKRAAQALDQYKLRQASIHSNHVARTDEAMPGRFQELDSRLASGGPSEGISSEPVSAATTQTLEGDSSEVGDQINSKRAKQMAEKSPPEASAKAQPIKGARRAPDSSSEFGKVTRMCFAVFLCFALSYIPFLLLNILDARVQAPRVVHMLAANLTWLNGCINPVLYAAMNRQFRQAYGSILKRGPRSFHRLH

The compound `Cc1cc(C#CCNC2CC2)ccc1-c1cn(CC2OCC(C)(C)CO2)nn1` [Compound I-697] gave an inhibition at 10 µM of more than 75% and a half-inhibitory concentration (IC50) of 300 to 1000 nM.

`Cc1cc(N2CC(F)C2)ccc1-c1cn(CC2CCCCO2)nn1` (stereo not drawn) [Compound I-529] yielded an inhibition at 10 µM not above 25%.

Consider `CC1(C)COC(Cn2cc(-c3ncc(C#CCNC4CC4)cc3OC3CC3)nn2)OC1` [Compound I-856], for which the inhibition at 10 µM was more than 75%.

In turn, `CN(c1cccc(C#N)c1)c1cn(CC2OCC(C)(C)CO2)nn1` [Compound I-802] registered an inhibition at 10 µM of more than 75%.

For the compound `Cc1cccc(-c2cn(CC#Cc3ccc(-c4cn(CC5CCCCO5)nn4)c(C)c3)nn2)c1` (stereo not drawn) [Compound I-492], the inhibition at 10 µM was more than 75% and the IC50 was not above 300 nM.

Take `CN1Cc2c(C#CC3CC3)ccc(-c3cn(CC4CCCCO4)nn3)c2C1` (stereo not drawn) [Compound I-268]: the inhibition at 10 µM is not above 25%.

Compound `CC1(C)COC(Cn2cc(-c3ncc(C#CCO)cc3OC3CC3)nn2)OC1` [Compound I-771] registered an IC50 not above 300 nM.

In the case of `Cc1cc(C#CCn2cc(-c3ccccc3)nn2)ccc1-c1cn(CC2CCCCO2)nn1` (stereo not drawn) [Compound I-432, 1-(3-(3-methyl-4-(1-((tetrahydro-2H-pyran-2-yl)methyl)-1H-1,2,3-triazol-4-yl)phenyl)prop-2-ynyl)-4-phenyl-1H-1,2,3-triazole], the inhibition at 10 µM is more than 75% and the IC50 lay within 300 to 1000 nM.

`Cc1cc(NC(=O)CC2CC2)ccc1-c1cn(CC2CCCCO2)nn1` (stereo not drawn) [Compound I-358]: the inhibition at 2 µM is not above 25%.

On to `CC1(C)COC(Cn2cc(-c3ncc(C#CCNCc4ccccn4)cc3OC3CC3)nn2)OC1` [Compound I-772], for which the IC50 was not above 300 nM.

As to `CS(=O)(=O)c1cc(C#CC2CC2)ccc1-c1cn(CC2CCCCO2)nn1` (stereo not drawn) [Compound I-219], the inhibition at 10 µM was not above 25%.

Take `C(#CC1CC1)c1ccc(-c2cn(CC3CCCCO3)nn2)cn1` (stereo not drawn) [Compound I-35]: the inhibition at 25 µM was not above 25%.

Turning to `COC(c1cn(CC2CCCCO2)cn1)c1cc(C#CC2CC2)ccc1C` (stereo not drawn) [Compound I-646], the inhibition at 2 µM is more than 75% and the IC50 was 300 to 1000 nM.

In turn, `COc1cc(N2CC(C)(C)C2)ccc1-c1cn(CC2CCCCO2)nn1` (stereo not drawn) [Compound I-279] gave an inhibition at 10 µM of more than 75%.

On to `Cc1cc(OCC(C)(C)N)ccc1-c1cn(CC2CCCCO2)nn1` (stereo not drawn) [Compound I-287], for which the inhibition at 10 µM was not above 25%.

The compound `CC(c1cc(C#CC2CC2)ccn1)c1cn(CC2CCCCO2)nn1` (stereo not drawn) [Compound I-633] registered an inhibition at 10 µM of 50 to 75%.

`COc1ccc(C#CC2CC2)cc1-c1cn(CC2CCCCO2)nn1` (stereo not drawn) [Compound I-125] displayed an inhibition at 10 µM not above 25%.

As to `CC(C)Oc1cc(C#CCN2CC(C)(C)C2)cnc1-c1cn(C[C@H]2CCCCO2)nn1` [Compound I-498], the inhibition at 2 µM was 50 to 75% and the IC50 was 300 to 1000 nM.

`COC(c1cn(CC2CCCCO2)nn1)c1cc(C#CC2CC2)ccc1F` (stereo not drawn) [Compound I-621] gave an inhibition at 10 µM of 50 to 75%.

`Cc1cc(N2CCC[C@@H](N(C)Cc3ccccc3)C2)ccc1-c1cn(C[C@H]2CCCCO2)nn1` (relative stereo) [Compound I-238] gave an inhibition at 10 µM of 50 to 75% and an IC50 of 1000 to 3000 nM.

As to `Cc1cc(N2CC(Nc3cnn(C)c3)C2)ccc1-c1cn(CC2CCCCO2)nn1` (stereo not drawn) [Compound I-541], the inhibition at 10 µM was in the range of 25 to 50%.

Compound `C(#CC1CC1)c1ccc(-c2cn(C[C@H]3COc4ccccc4O3)nn2)cc1` [Compound I-23] showed an inhibition at 25 µM not above 25%.

Take `Cc1cc(C#CCNc2ccccc2)ccc1-c1cn(Cc2ccccn2)nn1` [Compound I-137]: the inhibition at 10 µM is not above 25%.

On to `COC(c1cccc(C#CCO)c1)c1cn(CC2CCCCO2)nn1` (stereo not drawn) [Compound I-491], for which the inhibition at 10 µM was not above 25%.

Compound `Cc1ccccc1-c1cn(CC2CCCCO2)nn1` (stereo not drawn) [Compound I-467] returned an inhibition at 10 µM not above 25%.

Consider `COCC#Cc1cnc(-c2cn(CC3OCC4(CC4)CO3)nn2)c(OC2CC2)c1` [Compound I-833], for which the inhibition at 10 µM was not above 25% and the 50% inhibitory concentration (IC50) is not above 300 nM.

`COC(=O)NCC#Cc1cnc(-c2cn(CC3CCCCO3)nn2)c(C)c1` (stereo not drawn) [Compound I-573]: the inhibition at 10 µM is more than 75%.

Compound `CC1(CO)CN(c2ccc(-c3cn(CC4OCC5(CCC5)O4)nn3)c(CC(F)(F)F)c2)C1` (stereo not drawn) [Compound I-796] gave an IC50 not above 300 nM.

`FC(F)(F)c1ccc(C#CC2CC2)cc1-c1cn(CC2CCCCO2)nn1` (stereo not drawn) [Compound I-179] yielded an inhibition at 10 µM of 25 to 50%.

In turn, `CCc1cc(C#CCN2CC(C)(C)C2)cnc1-c1cn(CC2OCC(C)(C)CO2)nn1` [Compound I-666] yielded an inhibition at 2 µM of more than 75% and an IC50 not above 300 nM.

Regarding `CCc1cc(C#CC2CC2)cnc1-c1cn(CC2OCC(C)(C)O2)nn1` (stereo not drawn) [Compound I-602], the inhibition at 10 µM was not above 25%.

In turn, `CC1(C)COC(Cn2cc(-c3ncc(C#CCN4CC(C)(CO)C4)cc3OC3CC3)nn2)OC1` [Compound I-799] came in with an inhibition at 10 µM of more than 75% and an IC50 not above 300 nM.

`Clc1cc(C#CC2CC2)cnc1-c1cn(C[C@H]2CCCCO2)nn1` [Compound I-823] showed an inhibition at 10 µM not above 25%.

`FC(F)(F)COc1cc(C#CC2CC2)cnc1-c1cn(CC2OCC3(CCC3)O2)nn1` (stereo not drawn) [Compound I-815]: the inhibition at 2 µM was more than 75%.

With `Cc1cc(N2CCN(Cc3ccn(C)n3)CC2)ccc1-c1cn(CC2CCCCO2)nn1` (stereo not drawn) [Compound I-582], the inhibition at 10 µM was more than 75%.

Turning to `Cc1cc(N2CC(C)(CO)C2)c(F)cc1-c1cn(C[C@H]2CCCCO2)nn1` [Compound I-804], the IC50 was in the range of 300 to 1000 nM. The inhibition at 1 µM (HEK293, single concentration 1 μM (designated A°)) lay in the range of 25 to 50%.

Take `CN(C)c1cc(C#N)ccc1-c1cn(CC2OCC(C)(C)CO2)nn1` [Compound I-733, 4-(1-((5,5-dimethyl-1,3-dioxan-2-yl)methyl)-1H-1,2,3-triazol-4-yl)-3-(dimethylamino)benzonitrile]: the inhibition at 10 µM lay in the range of 50 to 75%.

`CC(c1cccc(C#CC2CC2)c1)c1cn(CC2CCCCO2)nn1` (stereo not drawn) [Compound I-302] gave an inhibition at 10 µM of more than 75%.

Turning to `CNC1CCN(c2ccc(-c3cn(CC4CCCCO4)nn3)c(C)c2)CC1` (stereo not drawn) [Compound I-128], the inhibition at 10 µM was not above 25%.

`Cc1cc(C#CCN(C)CC2CC2)cnc1-c1cn(CC2CCCCO2)nn1` (stereo not drawn) [Compound I-251] yielded an inhibition at 10 µM of more than 75%.

Regarding `CC1(C)COC(Cn2cncc2-c2ncc(C#CC3CC3)cc2OC2CC2)OC1` [Compound I-832], the inhibition at 10 µM is not above 25%.

`Cc1ccc(-c2ccc(-c3nnn(CC4CCCCO4)n3)cc2)cn1` (stereo not drawn) [Compound I-2] yielded an inhibition at 25 µM not above 25%.

Compound `CC(C)c1cc(N2CC(C)(C)C2)cnc1-c1cn(CC2CC(C)(C)O2)nn1` (stereo not drawn) [Compound I-600] had an inhibition at 10 µM of more than 75% and an IC50 of 1000 to 3000 nM.

For `O=C(O)c1cc(C#CC2CC2)ccc1-c1cn(CC2CCCCO2)nn1` (stereo not drawn) [Compound I-309], the inhibition at 10 µM is not above 25%.

For the compound `Cc1cc(C#CC2CC2)ccc1-n1cc(CC2CCOCC2)nn1` [Compound I-269], the inhibition at 10 µM was not above 25%.

Turning to `CC(C)Oc1cc(N2CC(C)(CO)C2)ccc1-c1cn(CC2OCC(C)(C)CO2)nn1` [Compound I-678], the inhibition at 2 µM is more than 75% and the IC50 fell in the range of 300 to 1000 nM.

For `Cc1cc(N2CCCC(CO)C2)ccc1-c1cn(CC2CCCCO2)nn1` (stereo not drawn) [Compound I-446], the inhibition at 10 µM was in the range of 25 to 50%.

In the case of `CN(C)c1cc(N2CC(C)(CO)C2)ccc1-c1cn(CC2OCC3(CCC3)O2)nn1` (stereo not drawn) [Compound I-728], the inhibition at 10 µM was more than 75%.

In turn, `Cc1cc(N2CC3(CCN(c4ccccn4)CC3)C2)ccc1-c1cn(CC2CCCCO2)nn1` (stereo not drawn) [Compound I-567] came in with an inhibition at 10 µM of 50 to 75% and an IC50 of 1000 to 3000 nM.

On to `Cc1cc(N2CC3CCC(C2)N3Cc2ccccn2)ccc1-c1cn(CC2CCCCO2)nn1` (stereo not drawn) [Compound I-466], for which the inhibition at 10 µM was not above 25%.

`Cc1ccc(C#CC2CC2)cc1-c1cn(CC2OCCCC2(C)C)nn1` (stereo not drawn) [Compound I-568] displayed an inhibition at 10 µM not above 25%.

`CCOCC#Cc1cnc(-c2cn(CC3OCC(C)(C)CO3)nn2)c(OC(C)C)c1` [Compound I-838] gave an inhibition at 10 µM of 50 to 75%.

`Cc1cc(C#CC2CC2)cnc1-c1cn(CC2CC(C)(C)O2)nn1` (stereo not drawn) [Compound I-420] gave an inhibition at 10 µM of 50 to 75%.

Compound `Cc1cc(C#CC2CC2)ccc1-n1nc(CC2CCCCO2)oc1=O` (stereo not drawn) [Compound I-12] showed an inhibition at 10 µM of 25 to 50%.

In turn, `Cc1cc(N2CC3CCC2CN3Cc2ccccn2)ccc1-c1cn(CC2CCCCO2)nn1` (stereo not drawn) [Compound I-550] gave an inhibition at 10 µM of 50 to 75%.

For `Cc1cc(C#CC2CC2)ccc1-c1cn(CC2CCCCO2)nc1C` (stereo not drawn) [Compound I-326], the inhibition at 10 µM was not above 25%.

In turn, `Cc1cc(C#CC2CC2)ccc1-c1cn(CC(C)Oc2ccccc2)nn1` (stereo not drawn) [Compound I-72] came in with an inhibition at 25 µM not above 25%.

Turning to `Cc1cc(C#CC2CC2)ccc1-c1cn(CC2OCc3ccccc32)nn1` (stereo not drawn) [Compound I-100], the inhibition at 10 µM was not above 25%.

The compound `CN(c1cccc(C#CC2CC2)c1)c1cn(CC2OCC(C)(C)CO2)nn1` [Compound I-824] gave an inhibition at 10 µM not above 25%.

Regarding `Cc1cc(C#CC2CC2)ccc1-c1cn(CC2CCCCO2)cn1` (stereo not drawn) [Compound I-341], the inhibition at 10 µM was in the range of 50 to 75%.

Turning to `Cc1cc(N2CCN([C@@H](C)c3ccccn3)CC2)ccc1-c1cn(CC2OCC(C)(C)CO2)nn1` [Compound I-716], the inhibition at 10 µM was more than 75% and the IC50 is 300 to 1000 nM.

`COC(C)(c1cccc(C#CC2CC2)c1)c1cn(CC2CCCCO2)nn1` (stereo not drawn) [Compound I-631] gave an inhibition at 10 µM of more than 75%.

As to `CCc1cc(C#CCN(C)CC2CC2)cnc1-c1cn(CC2CCCCO2)nn1` (stereo not drawn) [Compound I-276], the inhibition at 10 µM is more than 75%.

Regarding `Cc1cc(C#CC2CC2)ccc1-c1cn(CC2COCCN2)nn1` (stereo not drawn) [Compound I-515], the inhibition at 10 µM was not above 25%.

The values above are taken from patent US12617777B2, “GPR84 antagonists and uses thereof” (Liminal BioSciences Limited, priority 2021, dated 2026).
